Measurements as given in patent US11685739B2, “High penetration drugs and their compositions thereof for treatment of Parkinson diseases” (TECHFIELDS PHARMA CO., LTD, priority 2013, dated 2023).
Where a name gives a salt, the structure may show the parent alone. Read-outs that look alike come from different tables or passages of the source.

Assays:
[1] = tested on: motor function deficits induced by 6-OHDA in Parkinson's disease (PD) model; assay: Rotarod test in rats with 6-OHDA lesion, Parkinson's disease (PD) model; format: in vivo, Sprague-Dawley rats; settings: for Efficacy in Rotarod test comparing to vehicle group and positive control group: four-week treatment; for Efficacy of low dose compared with moderate and high dose groups: 0.67 mg/kg transdermal (group 3) vs 2 mg and 6 mg/kg (groups 4 and 5)
[2] = human, pH 7.4

SMILES | The cumulative amount of test compounds ([2]; 1 h) [mg] | The cumulative amount of test compounds ([2]; 2 h) [mg] | The cumulative amount of test compounds ([2]; 4 h) [mg] | The cumulative amount of test compounds ([2]; 8 h) [mg] | also measured
CC(=O)O.CCN(CC)CCOC(=O)C(C)c1ccc(CC(C)C)cc1 (stereo not drawn) [Drug D, 2-(diethylamino)ethyl 2-(4-isobutylphenyl)propionate acetic acid salt] |  |  |  |  | Efficacy in Rotarod test comparing to vehicle group and positive control group ([1]; Example 33, 15 mg and 45 mg/kg transdermal): good efficacy
CC(C(=O)OCCCCN(C)C)c1cccc(Oc2ccccc2)c1.Cl (stereo not drawn) [Drug F, 4-(dimethylamino)butyl 2-(3-phenoxyphenyl) Propionate Hydrochloride] |  |  |  |  | Efficacy in Rotarod test comparing to vehicle group and positive control group ([1]; Example 35, 20 mg and 60 mg/kg transdermal): good efficacy
C[C@@](Cc1ccc(O)c(O)c1)(NN)C(=O)O [carbidopa] |  |  |  |  | Effect on efficacy of L-Dopa and pro-drug of L-Dopa (Drug A) treated groups ([1]; Example 32, carbidopa 1.5 mg/kg orally, groups 1, 3, 4, 5, 6, 7, 9, 10, 4 weeks treatment): increased efficacy; Effect on efficacy of vehicle group and pro-drug of aspirin (Drug B) treated groups ([1]; Example 32, carbidopa 1.5 mg/kg orally, groups 2, 8 and 11, 4 weeks treatment): did not change the efficacy; Effect on efficacy of L-Dopa and pro-drug of L-Dopa treated groups ([1]; Example 34, carbidopa 1.5 mg/kg orally, groups 1, 3, 4, 5, 6, 7, 9, 10 (L-DOPA, Drug C), 4 weeks treatment): increased efficacy; Effect on efficacy of vehicle group and pro-drug of ibuprofen treated groups ([1]; Example 34, carbidopa 1.5 mg/kg orally, groups 2, 8 and 11 (Drug D), 4 weeks treatment): did not change the efficacy
Cl.NC(Cc1ccccc1)C(=O)NCCc1ccc(OC(=O)c2ccccc2)c(OC(=O)c2ccccc2)c1 (stereo not drawn) [Compound-4, 4-(2-(2-amino-3-phenylpropanamido)ethyl)-1,2,-phenylene dibenzoate hydrochloride] | 0.59 | 1.21 | 2.45 | 4.93 | 
Br.CNCC(=O)OC(C)OC(=O)NCCc1ccc(OC(=O)c2ccccc2)c(OC(=O)c2ccccc2)c1 (stereo not drawn) [Compound-3, 4-(6-methyl-4,8-dioxo-5,7-dioxa-2,9-diazadecan-11-yl)-1,2,-phenylene dibenzoate hydrobromide] | 0.61 | 1.23 | 2.49 | 5.01 | 
CNCC(=O)Oc1ccc(C[C@H](NC(=O)OC(C)OC(=O)C(C)C)C(=O)OC(C)C)cc1OC(=O)c1ccccc1 (stereo partly drawn) [Compound-21(a), 5-((2S)-2-(((1-(isobutyryloxy)ethoxy)carbonyl)amino-3-isopropoxy-3-oxopropyl)-2-(2-(methylamino)acetoxy)phenyl benzoate hydrochloride] | 0.52 | 1.08 | 2.17 | 4.37 | 
CNCC(=O)Oc1cc(C[C@H](NC(=O)OC(C)OC(=O)C(C)C)C(=O)OC(C)C)ccc1OC(=O)c1ccccc1 (stereo partly drawn) [Compound-21(b), 4-((2S)-2-(((1-(isobutyryloxy)ethoxy)carbonyl)amino-3-isopropoxy-3-oxopropyl)-2-(2-(methylamino)acetoxy)phenyl benzoate hydrochloride] | 0.51 | 1.05 | 2.08 | 4.19 | 

Second part, led by results:

The cumulative amount of test compounds ([2]; 1 h) [mg] | The cumulative amount of test compounds ([2]; 2 h) [mg] | The cumulative amount of test compounds ([2]; 4 h) [mg] | The cumulative amount of test compounds ([2]; 8 h) [mg] | SMILES | also measured
0.55 | 1.08 | 2.23 | 4.41 | Br.CCC(CC)OC(=O)[C@@H](N)Cc1ccc(OC(=O)C(C)C)c(OC(=O)C(C)C)c1 [Compound-15, (S)-4-(2-amino-3-oxo-3-(pentan-3-yloxy)propyl)-1,2-phenylene bis(2-methylpropanoate) hydrobromide] | Efficacy of low dose compared with moderate and high dose groups ([1]; Example 33): much higher than that of the moderate and high dose groups; Side effects (dyskinesia at peak dose, end-of-dose deterioration of function etc.) ([1]; Example 33, L-DOPA orally, pro-drug transdermally): avoided dyskinesia at peak dose, and end-of-dose deterioration of function
0.53 | 1.07 | 2.13 | 4.29 | CCCC(CCC)OC(=O)[C@@H](N)Cc1ccc(OC(=O)c2ccccc2)c(OC(=O)c2ccccc2)c1.Cl [Compound-12, (S)-4-(2-amino-3-(heptan-4-yloxy)-3-oxopropyl)-1,2-phenylene dibenzoate hydrochloride] | Efficacy of low dose compared with moderate and high dose groups ([1]; Example 36): much higher than that of the moderate and high dose groups
0.52 | 1.05 | 2.10 | 4.23 | CCCCC(=O)Oc1ccc(C[C@H](N)C(=O)OC(C)C)cc1OC(=O)CCCC.Cl [Compound-13, (S)-4-(2-amino-3-isopropoxy-3-oxopropyl)-1,2-phenylene dipentanoate hydrochloride] | 
1.15 | 2.31 | 4.58 | 9.22 | CC(C(=O)OCCN(C)C)c1cccc(Oc2ccccc2)c1.Cl (stereo not drawn) [Compound-25, 2-(dimethylamino)ethyl 2-(3-phenoxyphenyl) propionate.hydrochloride] | 
0.001 | 0.001 | 0.002 | 0.003 | CC(C(=O)O)c1cccc(Oc2ccccc2)c1 (stereo not drawn) [Compound-34, 2-(3-phenoxyphenyl) propionic acid, reference compound] | 
0.62 | 1.24 | 2.47 | 4.85 | CC(OC(=O)NCCc1ccc2c(c1)OC(=O)CC(N)C(=O)O2)OC(=O)C(C)C (stereo not drawn) [Compound-8b, 1-(((2-(3-amino-2,5-dioxo-2,3,4,5-tetrahydrobenzo[b][1,4]dioxocin-8-yl)ethyl)carbamoyl)oxy)ethyl isobutyrate hydrofluoride] | 
0.56 | 1.13 | 2.23 | 4.49 | CC(C)OC(=O)[C@H](Cc1ccc(OC(=O)c2ccccc2)c(OC(=O)c2ccccc2)c1)NC(=O)CN.Cl [Compound-16] | 
0.43 | 0.85 | 1.78 | 3.52 | CC(C)OC(=O)[C@H](Cc1ccc2c(c1)OC(=O)C(N)CC(=O)O2)NC(=O)OC(C)OC(=O)C(C)C (stereo partly drawn) [Compound-20(b), (2S)-isopropyl 3-(4-amino-2,5-dioxo-2,3,4,5-tetrahydrobenzo[b][1,4]dioxocin-8-yl)-2-(((1-(isobutyryloxy)ethoxy)carbonyl)amino)propanoate hydrobromide] | 
